Experimental data from ChEMBL document CHEMBL1150471, “Tritylated oncolytics as prodrugs” (Bioorg Med Chem Lett, 1995).
Values after ≈ are worked out from the molar mass of the structure shown. Active and inactive are the calls of the source. The calls are words filed in the database; no cut-off is given here.

Experiments:
[1] = system: Homo sapiens; experiment: Effective dose for the dose dependent inhibition of tumor growth against human colon (HC-1) xenograft in mice; Inactive; format: functional, organism-based
[2] = Half life at pH 5.4; no dissociation up to day 33; format: ADME; settings: buffer
[3] = system: Homo sapiens; experiment: In vivo tumor inhibition against human colon (HC-1) xenograft after i.p. administration to C3H nude mice on days 4; format: functional; design: concentration or dose not given beside the values
[4] = system: Homo sapiens; experiment: In vivo tumor inhibition against human colon (HC-1) xenograft after i.p. administration to C3H nude mice on days 10; format: functional; design: concentration or dose not given beside the values
[5] = system: Homo sapiens; experiment: In vivo tumor inhibition against human colon (HC-1) xenograft after i.p. administration to C3H nude mice on day 1; format: functional; design: concentration or dose not given beside the values
[6] = Half life at pH 6.4; no dissociation up to day 33; format: ADME; settings: buffer
[7] = system: Homo sapiens; experiment: In vivo tumor inhibition against human colon (HC-1) xenograft after i.p. administration to C3H nude mice on days 7; format: functional; design: concentration or dose not given beside the values
[8] = Half life at pH 7.4; no dissociation up to day 33; format: ADME; settings: buffer
[9] = system: CCRF-CEM; experiment: In vitro cytotoxicity against human leukemia cell line CCRF-CEM; format: functional, cell-based
[10] = Half life at pH 5.4; format: ADME; settings: buffer
[11] = Half life at pH 7.4; format: ADME; settings: buffer
[12] = Half life at pH 6.4; format: ADME; settings: buffer
[13] = system: Homo sapiens; experiment: Effective dose for the dose dependent inhibition of tumor growth against human colon (HC-1) xenograft in mice; format: functional
[14] = system: Homo sapiens; experiment: In vivo inhibition against human colon (HC-1) xenograft at a dose of 50 mg/kg; format: functional
[15] = system: Homo sapiens; experiment: In vivo inhibition against human colon (HC-1) xenograft at a dose of 20 mg/kg; format: functional
[16] = system: Homo sapiens; experiment: In vivo inhibition against human colon (HC-1) xenograft at a dose of 75 mg/kg; format: functional
[17] = system: Homo sapiens; experiment: In vivo inhibition against human colon (HC-1) xenograft at a dose of 37.5 mg/kg; format: functional

With `CC(C)NC(=O)c1ccc(C(Nc2nc(N)nc3c2ncn3[C@@H]2O[C@H](CO)[C@@H](O)C2(F)F)(c2ccccc2)c2ccccc2)cc1` the ED50 [1] was “inactive”, the T1/2 [2] was “no dissociation up to day 33” and the Inhibition [3] was over 95%. For the same compound, the Inhibition [4] was over 95%, the Inhibition [5] was over 95% and the T1/2 [6] was “no dissociation up to day 33”. The Inhibition [7] was over 95%, the T1/2 [8] was “no dissociation up to day 33” and the IC50 [9] was 1.7 µg/mL (≈ 2.7 µM).
With `COc1ccc(C(Nc2nc(N)nc3c2ncn3[C@@H]2O[C@H](CO)[C@@H](O)C2(F)F)(c2ccc(OC)cc2)c2ccc(C(=O)NC(C)C)cc2)cc1` the half-life [10] was 3.71 h, the Inhibition [3] was over 95% and the Inhibition [4] was over 95%. For the same compound, the half-life [11] was 146 h, the half-life [12] was 14.8 h and the Inhibition [5] was over 95%. The Inhibition [7] was over 95% and the IC50 [9] was 0.078 µg/mL (≈ 0.113 µM).
`Cc1ccc(C(Nc2nc(N)nc3c2ncn3[C@@H]2O[C@H](CO)[C@@H](O)C2(F)F)(c2ccccc2)c2ccc(C(=O)NC(C)C)cc2)cc1` (stereo not given in full) gave an ED50 [13] of 30 mg/kg, an Inhibition [3] of over 95% and an Inhibition [4] of over 95%. The Inhibition [5] was over 95%, the Inhibition [7] was over 95% and the IC50 [9] was 0.8 µg/mL (≈ 1.24 µM).
In the case of `COc1ccc(C(Nc2nc(N)nc3c2ncn3[C@@H]2O[C@H](CO)[C@@H](O)C2(F)F)(c2ccc(OC)cc2)c2cccc(C(=O)NC(C)C)c2)cc1`, the half-life [10] is reported as 2.35 h, the half-life [11] is reported as 133 h and the half-life [12] is reported as 23.3 h. The IC50 [9] was 0.084 µg/mL (≈ 0.122 µM).
`COc1ccc(C(Nc2nc(N)nc3c2ncn3[C@@H]2O[C@H](CO)[C@@H](O)C2(F)F)(c2ccc(C)cc2)c2ccc(C(=O)NC(C)C)cc2)cc1` (stereo not given in full) showed an Inhibition [3] of over 95%, an Inhibition [4] of over 95% and an Inhibition [5] of over 95%. It also gave an Inhibition [7] of over 95% and an IC50 [9] of 0.1 µg/mL (≈ 0.148 µM).
Work on `Nc1nc(N)c2ncn([C@@H]3O[C@H](CO)[C@@H](O)C3(F)F)c2n1` yielded an inhibition in vivo at 50 mg/kg [14] of over 95%, an inhibition in vivo at 20 mg/kg [15] of over 95% and an inhibition in vivo at 75 mg/kg [16] of over 95%. It also gave an inhibition in vivo at 37.5 mg/kg [17] of over 95% and an IC50 [9] of 0.024 µg/mL (≈ 0.0794 µM).
With `COc1ccc(C(Nc2nc(N)nc3c2ncn3[C@@H]2O[C@H](CO)[C@@H](O)C2(F)F)(c2ccccc2)c2ccc(C(=O)NC(C)C)cc2)cc1` (stereo not given in full) the half-life [10] was 16.7 h, the Inhibition [3] was over 95% and the Inhibition [4] was over 95%. It also gave a half-life [11] of 800 h, a half-life [12] of 547 h and an Inhibition [5] of over 95%. The Inhibition [7] was over 95% and the IC50 [9] was 0.1 µg/mL (≈ 0.152 µM).
